Our source for the IC50 values is publication PMC11137734, “Exploring Novel Antimalarial Compounds Targeting Plasmodium falciparum Enoyl-ACP Reductase: Computational and Experimental Insights” (ACS Omega, 2024).

In test [1] the target is T1, P. falciparum 2-trans-enoyl-ACP reductase (PfENR) (Plasmodium falciparum, UniProt C6KSZ2).
T1 construct: gene PF3D7_0615100; recombinant His-tagged PfENR (pGS-21a, E. coli BL21(DE3))
T1 sequence (C6KSZ2 96-432): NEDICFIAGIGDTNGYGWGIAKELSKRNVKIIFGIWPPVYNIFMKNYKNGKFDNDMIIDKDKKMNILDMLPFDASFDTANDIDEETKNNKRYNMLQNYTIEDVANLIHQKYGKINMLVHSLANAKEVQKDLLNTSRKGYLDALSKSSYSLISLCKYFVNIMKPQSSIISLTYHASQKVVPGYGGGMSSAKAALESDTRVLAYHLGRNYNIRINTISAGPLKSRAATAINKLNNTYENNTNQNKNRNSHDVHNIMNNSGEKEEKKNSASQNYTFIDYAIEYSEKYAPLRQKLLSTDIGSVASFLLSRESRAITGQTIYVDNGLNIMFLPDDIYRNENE
Nature of the test: NADH consumption enzymatic assay ([…] nm) with crotonyl-CoA, purified recombinant PfENR. Format: biochemical.

The target of test [2] is T1, P. falciparum 2-trans-enoyl-ACP reductase (PfENR). Nature of the test: NADH consumption enzymatic assay ([…] nm) with crotonyl-CoA, purified recombinant PfENR; positive control inhibitor. The test is classed as biochemical.

In general, IC50 refers to the concentration that inhibits the measured activity by half.

`CCc1ccc(Oc2ccc(NS(=O)(=O)c3ccc4ccccc4c3)cc2)cc1` [LG2, N-[4-(4-ethylphenoxy)phenyl]naphthalene-2-sulfonamide]: the IC50 in test [1] is 3.95 µM.
In the case of `Oc1cc(Cl)ccc1Oc1ccc(Cl)cc1Cl` [TCL, Triclosan], in test [2], the IC50 was 3.58 µM.
